Reference: PMC7615343, “Fluorination Influences the Bioisostery of Myo-Inositol Pyrophosphate Analogs” (Chemistry (Weinheim an der Bergstrasse, Germany), 2023)

Target: T1, PPIP5K2^1-366 (human PPIP5K2 kinase domain) (Homo sapiens, UniProt O43314)
T1 construct: one comprised residues 1–366; made in house
T1 sequence (O43314 1-366): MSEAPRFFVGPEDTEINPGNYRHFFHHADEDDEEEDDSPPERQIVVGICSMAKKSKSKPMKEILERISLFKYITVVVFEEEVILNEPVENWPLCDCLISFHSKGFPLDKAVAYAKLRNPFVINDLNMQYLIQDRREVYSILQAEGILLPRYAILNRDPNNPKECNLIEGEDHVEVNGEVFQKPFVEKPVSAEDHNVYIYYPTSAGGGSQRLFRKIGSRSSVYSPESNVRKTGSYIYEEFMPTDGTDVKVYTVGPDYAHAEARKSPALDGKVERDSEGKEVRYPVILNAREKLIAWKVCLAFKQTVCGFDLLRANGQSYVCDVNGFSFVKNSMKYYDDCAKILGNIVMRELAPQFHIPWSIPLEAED
Experiment: PPIP5K2KD reverse kinase assay (ATP formation from ADP and 1,5(PP)2-IP4)
Format: biochemical
Settings: 25 °C, 30 min, 0.1 mM ADP, 100 nM [1,5]PP-IP4, ATP production measured; this work; read-out: IC50, inhibition of the reverse kinase activity of PPIP5K2^1-366
Protocol: An alternative method to study the interaction of PP-IP5 analogs with PPIP5K2^KD is to derive IC50 values for inhibition of a “reverse-kinase” assay that records ATP formation when the enzyme is incubated with ADP and 1,5(PP)2-IP4.[29, 31] This approach avoids the need to use radiolabeled material and HPLC analysis. Moreover, the assay of ATP production is inherently more sensitive compared to measuring ATP consumption. […] In addition to the catalytic pocket, the PPIP5K2 kinase reaction cycle also utilizes a surface-mounted substrate capture site; the latter was initially identified through its binding of 5PA-IP5.[31] […] In this case, the higher affinity of the capture site for less polar molecules may explain why 5PA-IP5 is the only analog so far detected in this site.
For the reverse kinase assay, PPIP5K2^1-366 (2.5 μg mL^-1) was incubated at 25 °C for 30 min with 20 μL buffer containing 20 mM Tris-HCl, pH 7.5, 10 mM MgCl2, 0.1 mM ADP, 100 nM [1,5]PP-IP4 and various concentrations of either 5PCP-IP5 or 5PCF2P-IP5. The generated ATP was measured using a Molecular Probes ATP Determination kit (Thermo Fisher Scientific catalog number A22066). The IC50 value was calculated using GraphPad Prism. […]
Diffraction data were collected using APS beamlines 22 -ID. […] The structure was determined using rigid body and direct Fourier synthesis, and refined with t he equivalent and expanded test sets. […]

| SMILES | IC50 |
| --- | --- |
| O=P(O)(O)O[C@H]1[C@@H](OP(=O)(O)O)[C@H](OP(=O)(O)O)[C@@H](OP(=O)(O)C(F)(F)P(=O)(O)O)[C@H](OP(=O)(O)O)[C@H]1OP(=O)(O)O [5PCF2P-IP5] | 583 nM |
| O=P(O)(O)CP(=O)(O)O[C@H]1[C@H](OP(=O)(O)O)[C@@H](OP(=O)(O)O)[C@@H](OP(=O)(O)O)[C@@H](OP(=O)(O)O)[C@@H]1OP(=O)(O)O [5PCP-IP5] | 223 nM |
